By Ki is commonly meant a dissociation constant, usually derived from enzyme kinetics or from competition with a known ligand.

The target of this assay is T1, full length human recombinant glucocorticoid receptor (Homo sapiens, UniProt P04150).
T1 construct: It contains some partially purified full length human recombinant glucocorticoid receptor; purchased Panvera/Invitrogen PV4302
T1 sequence (P04150 1-777): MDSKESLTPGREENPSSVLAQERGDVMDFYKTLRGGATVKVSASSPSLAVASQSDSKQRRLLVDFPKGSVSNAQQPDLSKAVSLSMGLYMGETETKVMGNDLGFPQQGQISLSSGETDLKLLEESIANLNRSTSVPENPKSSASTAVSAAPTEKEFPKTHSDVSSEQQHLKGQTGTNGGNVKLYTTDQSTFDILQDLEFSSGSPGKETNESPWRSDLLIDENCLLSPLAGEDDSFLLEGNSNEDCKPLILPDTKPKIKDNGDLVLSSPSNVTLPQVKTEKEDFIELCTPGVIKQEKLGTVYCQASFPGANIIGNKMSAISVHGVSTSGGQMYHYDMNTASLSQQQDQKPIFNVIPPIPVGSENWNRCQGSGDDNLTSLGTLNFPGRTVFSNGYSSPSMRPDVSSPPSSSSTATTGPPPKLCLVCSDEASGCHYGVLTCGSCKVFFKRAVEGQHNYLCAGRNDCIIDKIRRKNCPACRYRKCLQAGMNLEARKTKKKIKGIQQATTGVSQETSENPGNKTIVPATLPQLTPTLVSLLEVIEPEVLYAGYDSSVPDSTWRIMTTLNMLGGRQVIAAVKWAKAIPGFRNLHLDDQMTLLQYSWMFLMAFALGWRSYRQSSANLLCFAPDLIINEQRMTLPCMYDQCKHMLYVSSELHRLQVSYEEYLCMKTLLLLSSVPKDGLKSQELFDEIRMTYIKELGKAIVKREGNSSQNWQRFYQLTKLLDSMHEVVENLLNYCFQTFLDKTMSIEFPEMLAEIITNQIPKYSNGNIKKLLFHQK
The assay can be described thus: Glucocorticoid Receptor Binding Assay (Glucocorticoid Receptor Competitor Assay far red kit, fluorescence polarization). The settings on record: competition with fluorescent GR ligand Fluormone GS Far Red, 3 hours at 22° C., pH 7.4; Ki calculated from IC50 by Cheng-Prusoff. In outline:
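Compounds in serial dilution (from intermediate 4.2% DMSO stock) displace Fluormone GS Far Red from full-length human recombinant GR with stabilizing peptide, pH 7.4, incubated 3 hours at 22° C dark. Polarized fluorescence (610–660 nm) gives IC50 via sigmoidal fit, converted to Ki by Cheng-Prusoff.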
For the compound `Cc1cc([C@@](O)([C@@H](C)c2ccc(Oc3ccc(C(=O)O)c(Cl)c3)cc2Cl)C(F)(F)F)cc(C)c1C#N` (relative stereo) [Example 144, 2-Chloro-4-{3-chloro-4-[2-(4-cyano-3,5-dimethyl-phenyl)-3,3,3-trifluoro-2-hydroxy-1-methyl-propyl]-phenoxy}-benzoic acid], the Ki is 2.5 nM. In the case of `C[C@H](c1ccc(Oc2ccc(C(=O)O)cn2)cc1Cl)[C@@](O)(c1ccc2c(c1)N(C)C(=O)CO2)C(F)(F)F` (stereo in doubt) [Example 205, 6-{3-Chloro-4-[3,3,3-trifluoro-2-hydroxy-1-methyl-2-(4-methyl-3-oxo-3,4-dihydro-2H-benzo[1,4]oxazin-6-yl)-propyl]-phenoxy}-nicotinic acid] it was 2.5 nM; in that of `COC(=O)c1ccc(Oc2ccc([C@@H](C)[C@@](O)(c3ccc4oc(=O)n(C)c4c3)C(F)(F)F)c(Cl)c2)cc1F` (relative stereo) [Example 176, 4-{3-Chloro-4-[3,3,3-trifluoro-2-hydroxy-1-methyl-2-(3-methyl-2-oxo-2,3-dihydro-benzooxazol-5-yl)-propyl]-phenoxy}-2-fluoro-benzoic acid methyl ester], 1.7 nM; in that of `C[C@@H](c1cc(-c2cccc(C(=O)O)c2)ccc1Cl)[C@](O)(c1ccc2c(c1)N(C)C(=O)CO2)C(F)(F)F` (relative stereo) [Example 18, 4′-Chloro-3′-[3,3,3-trifluoro-2-hydroxy-1-methyl-2-(4-methyl-3-oxo-3,4-dihydro-2H-benzo[1,4]oxazin-6-yl)-propyl]-biphenyl-3-carboxylic acid], 609 nM. For `C[C@@H](c1ccc(-c2ccc(CC(=O)O)cc2)cc1Cl)[C@](O)(c1ccc2c(c1)N(C)C(=O)CO2)C(F)(F)F` (relative stereo) [Example 37, {3′-Chloro-4′-[3,3,3-trifluoro-2-hydroxy-1-methyl-2-(4-methyl-3-oxo-3,4-dihydro-2H-benzo[1,4]oxazin-6-yl)-propyl]-biphenyl-4-yl}-acetic acid] the value was 6.6 nM; for `C[C@H](c1ccc(-c2ccc(F)c(C(=O)O)c2)cc1Cl)[C@@](O)(c1ccc(C#N)cc1)C(F)(F)F` (stereo in doubt) [Example 151, 3′-Chloro-4′-[2-(4-cyano-phenyl)-3,3,3-trifluoro-2-hydroxy-1-methyl-propyl]-4-fluoro-biphenyl-3-carboxylic acid], 18.5 nM. For `C[C@H](c1ccc(Oc2ccc(Cl)cc2C(=O)O)cc1Cl)[C@@](O)(c1ccc2c(c1)n(C)c(=O)n2C)C(F)(F)F` (stereo in doubt) [Example 100, 5-Chloro-2-{3-chloro-4-[2-(1,3-dimethyl-2-oxo-2,3-dihydro-1H-benzoimidazol-5-yl)-3,3,3-trifluoro-2-hydroxy-1-methyl-propyl]-phenoxy}-benzoic acid] the value was 1.9 nM; for `C[C@H](c1ccc(Oc2ncccn2)cc1Cl)[C@@](O)(c1ccc2oc(=O)n(C)c2c1)C(F)(F)F` (stereo in doubt) [Example 196, 5-{2-[2-Chloro-4-(pyrimidin-2-yloxy)-phenyl]-1-hydroxy-1-trifluoromethyl-propyl}-3-methyl-3H-benzooxazol-2-one], 1.6 nM. For the compound `C[C@H](c1ccc(Oc2ccc(C(=O)O)c(Cl)c2)cc1Cl)[C@@](O)(c1ccc2oc(=O)n(C)c2c1)C(F)(F)F` (relative stereo) [Example 173, 2-Chloro-4-{3-chloro-4-[3,3,3-trifluoro-2-hydroxy-1-methyl-2-(3-methyl-2-oxo-2,3-dihydro-benzooxazol-5-yl)-propyl]-phenoxy}-benzoic acid], the Ki is 1.1 nM.

Turning to `C[C@@H](c1ccc(-c2ccc(Cl)c(C(=O)O)c2)cc1Cl)[C@](O)(c1ccc2c(c1)N(C)C(=O)CO2)C(F)(F)F` (stereo in doubt) [Example 40, 4,3′-Dichloro-4′-[3,3,3-trifluoro-2-hydroxy-1-methyl-2-(4-methyl-3-oxo-3,4-dihydro-2H-benzo[1,4]oxazin-6-yl)-propyl]-biphenyl-3-carboxylic acid], the Ki was 1.5 nM. In the case of `COC(=O)c1ccc(-c2ccc([C@H](C)[C@](O)(c3ccc4c(c3)N(C)C(=O)CO4)C(F)(F)F)c(Cl)c2)cc1OC` (relative stereo) [Example 35, 3′-Chloro-3-methoxy-4′-[3,3,3-trifluoro-2-hydroxy-1-methyl-2-(4-methyl-3-oxo-3,4-dihydro-2H-benzo[1,4]oxazin-6-yl)-propyl]-biphenyl-4-carboxylic acid methyl ester] it was 2.6 nM.

With `Cc1cc([C@@](O)([C@@H](C)c2ccc(Oc3ncc(C(=O)O)cc3Cl)cc2Cl)C(F)(F)F)cc(C)c1C#N` (stereo in doubt) [Example 150, 5-Chloro-6-{3-chloro-4-[2-(4-cyano-3,5-dimethyl-phenyl)-3,3,3-trifluoro-2-hydroxy-1-methyl-propyl]-phenoxy}-nicotinic acid], the Ki is 1.3 nM.

Consider `C[C@H](c1ccc(Oc2ccc(C(=O)O)c(Cl)n2)cc1Cl)[C@@](O)(c1ccc2c(c1)N(C)C(=O)CO2)C(F)(F)F` (stereo in doubt) [Example 209, 2-Chloro-6-{3-chloro-4-[3,3,3-trifluoro-2-hydroxy-1-methyl-2-(4-methyl-3-oxo-3,4-dihydro-2H-benzo[1,4]oxazin-6-yl)-propyl]-phenoxy}-nicotinic acid], for which the Ki is 0.8 nM. For the compound `C[C@H](c1ccc(-c2cccc(C(=O)O)c2)cc1Cl)[C@@](O)(c1ccc2c(c1)n(C)c(=O)n2C)C(F)(F)F` (stereo in doubt) [Example 78, 3′-Chloro-4′-[2-(1,3-dimethyl-2-oxo-2,3-dihydro-1H-benzoimidazol-5-yl)-3,3,3-trifluoro-2-hydroxy-1-methyl-propyl]-biphenyl-3-carboxylic acid], the Ki is 1.3 nM.

Regarding `C[C@H](c1ccc(-c2ccc(C(=O)O)c(Cl)c2)cc1Cl)[C@@](O)(c1ccc2c(c1)oc(=O)n2C)C(F)(F)F` (relative stereo) [Example 135, 3,3′-Dichloro-4′-[3,3,3-trifluoro-2-hydroxy-1-methyl-2-(3-methyl-2-oxo-2,3-dihydro-benzooxazol-6-yl)-propyl]-biphenyl-4-carboxylic acid], the Ki was 154 nM.

On to `C[C@H](c1ccc(-c2ccc(C(=O)O)c(F)c2)cc1Cl)[C@@](O)(c1ccc2c(c1)NC(=O)CO2)C(F)(F)F` (relative stereo) [Example 72, 3′-Chloro-3-fluoro-4′-[3,3,3-trifluoro-2-hydroxy-1-methyl-2-(3-oxo-3,4-dihydro-2H-benzo[1,4]oxazin-6-yl)-propyl]-biphenyl-4-carboxylic acid], for which the Ki was 222 nM. For `C[C@H](c1ccc(Oc2cccc(C(=O)O)c2)cc1Cl)[C@@](O)(c1ccc2c(c1)n(C)c(=O)n2C)C(F)(F)F` (relative stereo) [Example 99, 3-{3-Chloro-4-[2-(1,3-dimethyl-2-oxo-2,3-dihydro-1H-benzoimidazol-5-yl)-3,3,3-trifluoro-2-hydroxy-1-methyl-propyl]-phenoxy}-benzoic acid] the value was 1.2 nM. Consider `COC(=O)c1ccc(Oc2ccc([C@H](C)[C@](O)(c3cc(C)c(C#N)c(C)c3)C(F)(F)F)c(Cl)c2)nc1` (stereo in doubt) [Example 147, 6-{3-Chloro-4-[2-(4-cyano-3,5-dimethyl-phenyl)-3,3,3-trifluoro-2-hydroxy-1-methyl-propyl]-phenoxy}-nicotinic acid methyl ester], for which the Ki was 2.8 nM. In the case of `C[C@@H](c1ccc(-c2ccc(C(=O)O)c(F)c2)cc1Cl)[C@](O)(c1cc2c(cc1F)OCC(=O)N2C)C(F)(F)F` (stereo in doubt) [Example 137, 3′-Chloro-3-fluoro-4′-[3,3,3-trifluoro-2-(7-fluoro-4-methyl-3-oxo-3,4-dihydro-2H-benzo[1,4]oxazin-6-yl)-2-hydroxy-1-methyl-propyl]-biphenyl-4-carboxylic acid] it was 20 nM; in that of `C[C@@H](c1cc(Oc2ccc(Cl)c(C(=O)O)c2)ccc1Cl)[C@](O)(c1ccc2c(c1)N(C)C(=O)CO2)C(F)(F)F` (relative stereo) [Example 15, 2-Chloro-5-{4-chloro-3-[3,3,3-trifluoro-2-hydroxy-1-methyl-2-(4-methyl-3-oxo-3,4-dihydro-2H-benzo[1,4]oxazin-6-yl)-propyl]-phenoxy}-benzoic acid], 3.7 nM. For `COC(=O)c1ccc(Oc2ccc(Cl)c([C@H](C)[C@](O)(c3ccc4c(c3)N(C)C(=O)CO4)C(F)(F)F)c2)cc1` (relative stereo) [Example 7, 4-{4-Chloro-3-[3,3,3-trifluoro-2-hydroxy-1-methyl-2-(4-methyl-3-oxo-3,4-dihydro-2H-benzo[1,4]oxazin-6-yl)-propyl]-phenoxy}-benzoic acid methyl ester] the value was 11.1 nM.

The values are drawn from patent US8450313B2, “2,3-diaryl- or heteroaryl-substituted 1,1,1-trifluoro-2-hydroxypropyl compounds” (Hoffmann-La Roche Inc., priority 2009, dated 2013).
